Data on four molecules can be found in US20180008573A1, “METHODS AND COMPOSITIONS FOR REDUCING DAMAGE ASSOCIATED WITH OXIDATIVE PHOSPHORYLATION” (USANA Health Sciences, Inc., priority 2016, published 2018).

The test system of one experiment is human NF-κB. The experiment in a line: NF-κB antagonist reporter assay (NF-κB GRE-luciferase, HEK293 cells).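 Also: reporter cells carry native NF-κB receptor with firefly luciferase under upstream response elements, with a vehicle control included.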 The experiment is classed as cell-based. On the technique in general: A reporter such as luciferase makes a cellular process visible.
In a further experiment the test system is NF-κB reporter cells. Kind of experiment: Live cell multiplex assay in the NF-κB antagonist assay. Format: cell-based, human. On the procedure:
A vehicle control was prepared.

A further experiment concerns C. elegans strain CB5586. Kind of experiment: C. elegans phenotypic lifespan screening (Kaplan-Meier, Log-Rank, Fisher's Exact Test). The experiment is classed as in vivo. Conditions: for % Change in Mean Lifespan: 0.1 mg/ml vs. DMSO control; for restricted mean lifespan, # of Days: DMSO control 13.23. The method, then: Dilutions of the test formulations were applied to individual populations of C. elegans and the lifespan of each population was monitored. Any changes in the lifespan of an individual population compared to a control population were recorded and correlated to the respective test formulation (N356 or N357) and the respective dilution (0.1 mg/ml, 1 mg/ml, and 10 mg/ml).
The […] and N357 formulations were each prepared as individual 100 mg/ml stock solutions in dimethyl sulfoxide (DMSO). Serial dilutions of each stock solution were then prepared at 0.1 mg/ml, 1 mg/ml, and 10 mg/ml in DMSO. Control solutions of DMSO only were also prepared. Synchronous aged adult populations of C.elegans strain CB5586 worms were prepared. The CB5586 strain comprises a pharyngeal GFP (green fluorescent protein) tag and a mutation in the bus-5 gene. The pharyngeal GFP tag allows for fluorescent images of the worm populations to be taken. The mutation in the bus-5 gene causes the loss of normal cuticle antigens that permits the cuticle of the worms to become permeable to the test formulations and allow direct uptake of the test formulations to avoid interaction of the test formulations with protective mechanisms of the gut channel. Each serial dilution of each test formulation was added to a separate population of the prepared worms. The control solutions were also added to separate populations of the prepared worms. The populations of the prepared worms were then maintained on standard nematode growth media (NGM) agar plates at 20° C. with sufficient food (Escherichia coli strain OP-50).
Each worm population was then monitored by fluorescent imaging to determine the number of living and dead worms as a function of time. The fluorescent imaging was analyzed by software that recognized and counted worms based on their fluorescent intensity compared to background fluorescence. […] The ability to distinguish between living and dead worms allowed the number of living worms and cumulative number of dead worms to be monitored against time. Worm populations from a selection of fluorescent images were manually checked to verify that the software had accurately counted the number of living and dead worms.
The counts of the living and dead worms as a function of time were then analyzed for each of the worm populations and used to prepare Kaplan-Meier survival curves and associated statistics for each of the worm populations. […] The median lifespan is shown as the length of time after the last mitotic division that 50% of the test population remains viable when compared to the control population. The maximum lifespan extension is shown as the length of time after the last mitotic division that 5% of the test population remains viable when compared to the control population.
The counts of the living and dead worms as a function of time and the Kaplan-Meier survival curves and the associated statistics were then analyzed for each of the worm populations. The analysis included determining mean and median lifespan. The analysis included a non-parametric test, the Log-Rank test, that compares two survival functions for the overall lifespan assay and provides a reliable p-value summarizing the whole experiment. The analysis also included Fisher's Exact Test that calculated the significance of survival function comparisons at multiple specific time points throughout the experiment, rather than for the overall lifespan. The results of the analysis are shown below in Tables 10-17.
Phenotypic screening was carried out as described in EXAMPLE 2 for various individual compounds of the N357 formulation. […] Alpha lipoic acid was sourced from PureBulk USA as a racemic mix of R and S stereoisomers and was assigned a sample number of N198. Hesperidin was sourced from Sigma Aldrich at ≧80% purity and was assigned a sample number of N347. […]

As to `O=C(O[C@@H]1Cc2c(O)cc(O)cc2O[C@@H]1c1cc(O)c(O)c(O)c1)c1cc(O)c(O)c(O)c1` [EGCG, epigallocatechin gallate], the “NF-κB % Inhibition” value in the experiment on human NF-κB (0.033 μg/ml active ingredient) is recorded as 10%; in the experiment on human NF-κB (0.098 μg/ml active ingredient), 18%; with human NF-κB (0.30 μg/ml active ingredient), 0.10%; in the experiment on human NF-κB (0.89 μg/ml active ingredient) it was 8.4%; in the experiment on human NF-κB (2.67 μg/ml active ingredient), −15%; in the experiment with human NF-κB (8 μg/ml active ingredient), −29%. The “NF-κB % Live Cell” value in the experiment with NF-κB reporter cells (0.033 μg/ml active ingredient) amounted to 102%; in the experiment with NF-κB reporter cells (0.098 μg/ml active ingredient), 101%; in the experiment on NF-κB reporter cells (0.30 μg/ml active ingredient), 105%; in the experiment on NF-κB reporter cells (0.89 μg/ml active ingredient) it was 104%; in the experiment on NF-κB reporter cells (2.67 μg/ml active ingredient) it was 106%; in the experiment with NF-κB reporter cells (8 μg/ml active ingredient) it was 107%.
On to `C[C@@H]1O[C@@H](OC[C@H]2O[C@@H](Oc3c(-c4ccc(O)c(O)c4)oc4cc(O)cc(O)c4c3=O)[C@H](O)[C@@H](O)[C@@H]2O)[C@H](O)[C@H](O)[C@H]1O` [N346, rutin hydrate], for which, in the experiment with C. elegans strain CB5586 (0.1 mg/ml), the decrease of lifespan entry is “about 9%”, the “population age in days at 25% mortality” value stood at 9 days, the “population age in days at 50% mortality” value is given as 11 days and the “population age in days at 75% mortality” value came out at 14 days. Also, in the experiment with C. elegans strain CB5586 (0.1 mg/ml), the “population age in days at 90% mortality” value is recorded as 18 days and the “restricted mean lifespan, # of Days” value is 12.03 days. For the same molecule, in the experiment on C. elegans strain CB5586, the “% Change in Mean Lifespan” value was −8%. Further, in the experiment on C. elegans strain CB5586 (10 mg/ml), the “population age in days at 25% mortality” value is given as 11 days; the “population age in days at 50% mortality” value was determined as 14 days; the “population age in days at 75% mortality” value turned out to be 16 days; the “restricted mean lifespan, # of Days” value is 13.43 days.
`COc1ccc([C@@H]2CC(=O)c3c(O)cc(O[C@@H]4O[C@H](CO[C@@H]5O[C@@H](C)[C@H](O)[C@@H](O)[C@H]5O)[C@@H](O)[C@H](O)[C@H]4O)cc3O2)cc1O` [N347, hesperidin]: in the experiment on C. elegans strain CB5586 (0.1 mg/ml), the “Statistically Significant Result (lifespan vs. DMSO control)” value was “Statistically significant increase”, the extension of lifespan entry is “about 10%”, the “population age in days at 25% mortality” value is 11 days and the “population age in days at 50% mortality” value worked out at 16 days. In the experiment on C. elegans strain CB5586 (0.1 mg/ml), the “population age in days at 75% mortality” value is recorded as 18 days and the “restricted mean lifespan, # of Days” value is 14.55 days. For the same molecule, in the experiment on C. elegans strain CB5586 (0.1 mg/ml and 10 mg/ml tested), the “effect on chronological lifespan” value was “significant positive and dose dependent increase of chronological lifespan”. The “% Change in Mean Lifespan” value with C. elegans strain CB5586 was “+10%”. For the same molecule, in the experiment with C. elegans strain CB5586 (10 mg/ml), the “Statistically Significant Result (lifespan vs. DMSO control)” value is “No statistical difference”, the “population age in days at 25% mortality” value is on record as 11 days, the “population age in days at 50% mortality” value is listed as 14 days and the “population age in days at 75% mortality” value was 18 days. Further, the “restricted mean lifespan, # of Days” value in the experiment on C. elegans strain CB5586 (10 mg/ml) turned out to be 14.19 days.
As for `C[C@@H]1O[C@@H](OC[C@H]2O[C@@H](Oc3c(-c4ccc(O)c(O)c4)oc4cc(O)cc(O)c4c3=O)[C@H](O)[C@@H](O)[C@@H]2O)[C@H](O)[C@H](O)[C@H]1O` [Rutin, quercetin-3-O-rutinoside], the “NF-κB % Inhibition” value in the experiment with human NF-κB (1.11 μg/ml active ingredient) is reported as 10%; in the experiment on human NF-κB (3.3 μg/ml active ingredient) it was −2.3%; in the experiment with human NF-κB (10.0 μg/ml active ingredient), −11%; with human NF-κB (30 μg/ml active ingredient) it was −15%. The “NF-κB % Live Cell” value in the experiment on NF-κB reporter cells (1.11 μg/ml active ingredient) amounted to 99%; with NF-κB reporter cells (3.3 μg/ml active ingredient) it was 98%; in the experiment with NF-κB reporter cells (10.0 μg/ml active ingredient), 101%; in the experiment on NF-κB reporter cells (30 μg/ml active ingredient), 97%.
